From the OPERA property sets (Mansouri et al. 2018) come the findings set out here.

The logP is a log measure of how a compound divides between an organic and an aqueous phase.

In turn, `CN1C(=O)CN=C(c2c(Cl)cccc2Cl)c2cc(Cl)ccc21` showed a logP of 3.04.
The same measure for `CCOC(=O)c1c(OCC)cc(Cc2cnc(N)nc2N)cc1OCC`: 2.28; for `O=[N+]([O-])c1nccn1CCS(=O)(=O)c1ccccc1`: 0.52; for `NN=C1c2ccccc2C(=O)C1C(=O)C(c1ccccc1)c1ccccc1` (configuration not stated): 3.62.
The same measure for `COc1cc(Cc2cnc(N)nc2N)ccc1Cl`: 1.87; for `COC(CN1CCCC1)c1ccccc1` (configuration not stated): 1.88.
Next, `CC(=O)c1cccc(N2C(N)=NC(N)=NC2(C)C)c1`: -0.22; `C=CCOCC(O)Cn1ccnc1[N+](=O)[O-]` (configuration not stated): 0.4; `O=C1CCCN1CCOc1ccc([N+](=O)[O-])cc1`: 1.33.
Compound `CCCCCCCCCCOC(=O)N(C)SN(C)C(=O)ON=C(C)SC` registered a logP of 6.2.
Next, `O=C(O)CCSc1c[nH]c2ccccc12`: 2.15; `O=C1CN=C(c2ccccc2)c2ccccc2N1`: 2.18; `Nc1nc(N)nc(-c2cc(Cl)ccc2Cl)n1`: 1.97.
As for `O=C(Cn1ccnc1[N+](=O)[O-])NCCO`, the logP is -1.34.
`CCNNC(=O)COc1ccc(Cl)cc1` had a logP of 1.73.
`Cc1ccoc1CN(C)C` registered a lipophilicity (logP) of 1.63.
`Cc1ccc(C(=O)c2ccncc2)cc1` returned a logP of 2.51.
Next, `COc1ccccc1C(=O)NCCCN`: 0.2; `CN(C)C(=O)Nc1ccc(Br)cc1`: 2.19.
The compound `CNP(=O)(OC)Oc1cccc(C(C)(C)C)c1` (configuration not stated) registered a lipophilicity (logP) of 2.65.
Take `COc1ccc(Br)c(Cc2cnc(N)nc2N)c1`: the logP was determined as 2.
`Nc1cccc(O[Si]23OCCN(CCO2)CCO3)c1` registered a logP of -1.15.
Regarding `CC1CN(N=O)CC(C)N1N=O` (configuration not stated), the logP came out at 0.08.
Turning to `CC(=O)c1ccccc1OC(=O)N(C)C`, the logP was 0.93.
In turn, `O=C1CN=C(c2ccccc2Br)c2cc(Cl)ccc2N1` returned a logP of 3.17.
The same measure for `O=C1CCC(=O)N1c1ccccc1C(F)(F)F`: 0.76; for `Cn1c(=O)c(=O)n(C)c2ccccc21`: 0.08; for `CN(SN(C)C(=O)OC(C)(C)C)C(=O)Oc1cccc2c1OC(C)(C)C2`: 4.3.
In turn, `Cc1cccc(NC(=O)CN2CCCCC2)c1` returned a logP of 2.97.
Consider `CCCCNP(=O)(OC)Oc1cc(Cl)c(Cl)cc1Cl` (configuration not stated), for which the logP worked out at 4.18.
`CC1CN(C(=O)c2ccccc2)CC(C)N1N=O` (configuration not stated): the logP came out at 1.04.
As for `COc1ccc(Cc2cnc(N)nc2N)cc1O`, the logP was found to be 0.74.
On to `CCOCC(O)Cn1ccnc1[N+](=O)[O-]` (configuration not stated), for which the log partition coefficient (logP) came to 0.04.
The same measure for `CCCCCCCCCCCCCC[n+]1cc(C)cc(C)c1.[I-]`: 2.9; for `COc1cc(CC(=O)O)ccc1OCCCC(C)C`: 3.3; for `O=C1CCC(=O)N1c1cccc(Cl)c1`: 0.98.
Consider `CC(=O)C(C#N)=NNc1ccc(Cl)cc1`, for which the logP is 4.1.
In turn, `CN(Cc1ccccc1)N=Nc1ccc(C(N)=O)cc1` had a logP of 2.76.
For `CC(=O)Nc1c(C)c(C)c(O)c(C)c1C`, the logP was 0.95.
The compound `CC(=O)Nc1ccccc1C(C)=O` came in with a logP of 1.5.
For `CCCCN(SN(C)C(=O)ON=C(C)SC)C(=O)OC`, the logP is 2.5.
`CCOC(=O)C(=Cc1ccc(Cl)cc1)C(=O)OCC` registered a logP of 3.96.
In the case of `C[N+](C)(C)Cc1cccc(O)c1.[Br-]`, the log partition coefficient (logP) is -2.4.
In turn, `O=[N+]([O-])c1cc(Cl)c(N=C2NCCN2)c(Cl)c1` registered a logP of 2.1.
`COc1cc(Cc2cnc(N)nc2N)cc(OC)c1Cl`: the logP turned out to be 1.87.
`CC(C)(C)C(=O)C(C#N)=NNc1cccc(Cl)c1` had a logP of 4.62.
On to `O=C1CCCN1Cc1ccccc1`, for which the logP came out at 1.25.
The same measure for `CC(=O)Nc1cc2c(cc1Cl)S(=O)(=O)NC(C)=N2`: 0.53; for `CCCCCC1(CC)C(=O)NC(=O)N(C)C1=O` (configuration not stated): 2.45; for `O=C1CCC(=O)N1c1ccc(C(F)(F)F)cc1`: 1.45.
The same measure for `COC(=O)C(C#N)=NNc1cccc(C(F)(F)F)c1`: 3.78; for `Cc1cc(NC(=O)N(C)C)cc(C)c1Br`: 2.92; for `O=C(NC(CO)C(O)c1ccccc1)C(Cl)Cl` (configuration not stated): 0.94.
`O=C(Nc1ccccc1)c1cc(N2CC2)c([N+](=O)[O-])cc1[N+](=O)[O-]` had a logP of 2.23.
The compound `CC(C)C1OC(=O)c2ccccc21` (configuration not stated) returned a logP of 2.1.
`O=C1CCC(=O)N1c1ccccc1Cl` yielded a logP of 0.56.
`O=NN1CCC(O)CC1` gave a logP of -0.89.
`O=C(CN1CCCCC1)Nc1ccc(Cl)cc1` gave a logP of 3.34.
Take `C=Cc1cnc([N+](=O)[O-])n1C`: the logP was 0.64.
Next, `c1cncc(CCN2CCCCC2)c1`: 1.66; `O=S(=O)(Nc1ccc(F)cc1)C(F)(F)F`: 3.25; `CS(=O)(=O)c1cccc(NS(=O)(=O)C(F)(F)F)c1`: 1.85.
Next, `Cc1[nH]c(=O)n(OCC(C)C)c(=O)c1Br`: 1.23; `S=C=NC(c1ccccc1)c1cccc2ccccc12` (configuration not stated): 6.44.
In turn, `O=NN(CCCl)C(=O)NC1CCC(=O)NC1=O` (configuration not stated) yielded a logP of 0.37.
`CCC(C)NP(=O)(OC)SC` (configuration not stated) showed a logP of 0.95.
Consider `O=[N+]([O-])c1nccn1CC(O)CO` (configuration not stated), for which the log partition coefficient (logP) is -0.96.
The same measure for `CCSC(=O)Oc1cccc2cccnc12`: 2.74.
In the case of `O=C(NCc1ccccc1O)c1ccccc1`, the logP was determined as 2.55.
For the compound `O=C(NCCO)c1cccnc1`, the logP is -0.11.
Next, `CCN(CC)c1cc(N)[n+]([O-])c(N)n1`: 1.16.
The same measure for `Clc1cc(Cl)c(-c2ccccc2)cc1Cl`: 5.81.
The compound `CC1CCC(C)N1N=O` (configuration not stated) displayed a logP of 0.86.
The compound `O=NN(CCCl)C(=O)NC1CCCCC1O` (configuration not stated) registered a logP of 1.75.
Turning to `COc1ccc(C(=O)c2ccncc2)cc1`, the logP was 1.94.
Take `O=C1CCC(=O)N1c1ccc(Cl)cc1`: the logP is 0.96.
`CCCCCc1nnc(N)o1` gave a logP of 1.1.
`COc1ccc(Cc2cnc(N)nc2N)cc1` displayed a log partition coefficient (logP) of 1.34.
On to `CCCCN(CCCC)CCS(=O)(=O)c1cc(OC)c(OC)c(OC)c1`, for which the logP was 3.55.
The compound `O=[N+]([O-])c1c(Cl)c[n+]([O-])c2ccccc12` displayed a logP of 1.33.
`CCN(CC)CCNC(=O)c1cc(Br)ccc1OC` displayed a logP of 3.2.
Take `COc1cc(Cc2cnc(N)nc2N)cc(OC)c1SC`: the logP was 1.54.
The compound `CC(C)c1cccc(OC2OC(CO)C(O)C(O)C2O)c1` (configuration not stated) displayed a logP of 0.65.
The same measure for `Cc1nc(-c2ccccn2)no1`: 0.79; for `Nc1nc(=O)c2ccccc2[nH]1`: 0.6.
Next, `CC(=O)OCC(Cn1ccnc1[N+](=O)[O-])OC(C)=O` (configuration not stated): -0.05; `CCCCNP(=O)(OC)SC` (configuration not stated): 0.94.
In the case of `CC1=Nc2c([N+](=O)[O-])cc(Cl)cc2S(=O)(=O)N1`, the logP is 0.85.
On to `OC(C1CO1)C(O)C1CO1` (configuration not stated), for which the logP is -1.29.
For `Nc1nc(-c2ccccc2)c2ccccc2n1`, the logP turned out to be 2.95.
`CN(C)C(=O)c1ccsc1` showed a logP of 0.55.
Consider `O=S(=O)(Nc1cccc(O)c1)C(F)(F)F`, for which the logP was 2.51.
Compound `CC(=O)Nc1ccn(C2OC(COC(C)=O)C(OC(C)=O)C2OC(C)=O)c(=O)n1` (configuration not stated) gave a logP of -0.16.
Consider `CCCCCC[n+]1ccccc1.[Br-]`, for which the lipophilicity (logP) was -2.03.
`O=C(O)COc1ccc(Cl)c(C(=O)O)c1`: the log partition coefficient (logP) is 1.07.
`COc1cc(Cc2cnc(N)nc2N)cc(OC)c1C(=O)CS(C)(=O)=O` returned a logP of -0.31.
`CCC1(CC)SCC(=O)NC1=O` returned a logP of 1.52.
Compound `ClC1=CC(Cl)C(Cl)C(Cl)C1` (configuration not stated) displayed a logP of 3.72.
Next, `OCC1OC(SCCc2ccccc2)C(O)C(O)C1O` (configuration not stated): -0.1; `CCCCCCNC(=O)CNC(=O)C=[N+]=[N-]`: 1.51; `O=C1CCC(=O)N1c1cccc(Br)c1`: 1.09.
For the compound `CCCC(CO)n1cnc2c(N)ncnc21` (configuration not stated), the logP is 0.66.
Regarding `N#CCNc1ccccc1C(=O)O`, the logP was 1.8.
With `CCCOn1c(=O)cc(C)[nH]c1=O`, the logP was found to be 0.3.
`COn1c(=O)[nH]c(C)c(Br)c1=O`: the logP was -0.3.
In turn, `CCCC1(CC)C(=O)NC(=O)N(C)C1=O` (configuration not stated) returned a logP of 1.65.
As for `CS(=O)(=O)c1cccc(NC(N)=O)c1`, the logP was -0.12.
With `CCOC(=O)c1cnc2ccccn2c1=O`, the logP was 0.25.
The compound `O=C1CN=C(c2ccccc2F)c2cc([N+](=O)[O-])ccc2N1` had a logP of 2.15.
The same measure for `CCC1(CC)OC(=O)c2ccccc21`: 2.69.
For `CCC(=O)N(C)SN(C)C(=O)ON=C(C)SC`, the logP turned out to be 1.6.
`O=C(CNC(=O)c1ccccc1)Oc1cccc(C(F)(F)F)c1` gave a log partition coefficient (logP) of 3.3.
In turn, `Clc1ccc(-c2ccc(Cl)cc2Cl)cc1` displayed a logP of 5.62.
The compound `CCc1cccc(OC2OC(CO)C(O)C(O)C2O)c1` (configuration not stated) registered a logP of 0.31.
As for `COC(=O)C(C#N)=NNc1ccc(Cl)c(C(F)F)c1`, the logP turned out to be 3.8.
`COc1cc(Cc2cnc(N)nc2N)cc(OC)c1C#N` registered a logP of 1.39.
As for `CC(C)NNC(=O)C(C)(C)Oc1ccc(Cl)cc1`, the log partition coefficient (logP) is 2.56.
`ClC1C(Cl)C(Cl)C(I)C(Cl)C1Cl` (configuration not stated) had a logP of 4.05.
The compound `O=C1O[C@@H](O)c2ccccc21` yielded a logP of 0.57.
Compound `CC(=O)c1cccc(NS(=O)(=O)C(F)(F)F)c1` gave a logP of 2.78.
Turning to `CC(C)CC1=Nc2cc(Cl)ccc2S(=O)(=O)N1`, the log partition coefficient (logP) was 2.35.
The same measure for `CSc1nnc(C2CCCCO2)c(=O)n1N` (configuration not stated): 0.38.
`C=CCOn1c(=O)[nH]c(C)c(Br)c1=O` had a logP of 0.32.
The same measure for `OC1C(Cl)C(Cl)C(Cl)C(Cl)C1Cl` (configuration not stated): 2.54.
Turning to `CC=CCOC(=O)C1C(C=C(C)C)C1(C)C` (configuration not stated), the logP was 5.09.
Take `O=[N+]([O-])c1nccn1CCOc1ccccc1`: the log partition coefficient (logP) came to 1.89.
Next, `COc1cc(Cc2cnc(N)nc2N)cc(OCc2ccccc2)c1OC`: 2.37.
